According to patent US5527793A, “Antibiotic carbapenem compounds” (Zeneca Limited, priority 1992, dated 1996):
Counter-ions that a name gives are not always drawn.

Key:
Experiment in all cases: MIC by agar-dilution technique, Diagnostic Sensitivity Test
Format in all cases: cell-based
[1] = system: E. coli DCO; details: Escherichia coli, inoculum 10^4 CFU/spot, read-out: minimum inhibitory concentration (MIC)
Text: (§1) The following results were obtained for representative compounds on a standard in vitro test system using Diagnostic Sensitivity Test. The antibacterial activity is described in terms of the minimum inhibitory concentration (MIC) determined by the agar-dilution technique with an inoculum size of 10^4 CFU/spot.

[2] = system: B. fragilis AMP S; details: Bacteroides fragilis, inoculum 10^4 CFU/spot, read-out: minimum inhibitory concentration (MIC)
Text: as §1

[3] = system: S. aureus Oxford; details: Staphylococcus aureus, inoculum 10^4 CFU/spot, read-out: minimum inhibitory concentration (MIC)
Text: as §1

[4] = system: P. morganii I + 001; details: Morganella morganii, inoculum 10^4 CFU/spot, read-out: minimum inhibitory concentration (MIC)
Text: as §1

[5] = system: Enterobacter cloacae P99-; details: P99, read-out: minimum inhibitory concentration (MIC)
Text: as §1

SMILES: C[C@@H](O)[C@H]1C(=O)N2C(C(=O)O)=C(S[C@@H]3CN[C@H](C(=O)Nc4nc(C(=O)O)cs4)C3)[C@H](C)[C@H]12 [Example 2, (1R,5S,6S,8R,2'S,4'S)-2-(2-(4-Carboxy-2-thiazolylcarbamoyl)pyrrolidin-4-ylthio)-6-(1-hydroxyethyl)71-methylcarbapenem-3-carboxylic acid, disodium salt]
- MIC [1]: 0.03 µg/mL
- MIC [2]: 0.5 µg/mL
- MIC [3]: 0.25 µg/mL
- MIC [4]: 0.03 µg/mL
- MIC [5]: 0.03 µg/mL
